Experimental data published in paper PMC10497752, “Heparins are potent inhibitors of ectonucleotide pyrophosphatase/phospho-diesterase-1 (NPP1) – a promising target for the immunotherapy of cancer” (Frontiers in Immunology, 2023).

Tests used:
human NTPDase2 = target: T1, human NTPDase2 (Homo sapiens, UniProt Q9Y5L3); assay: NTPDase CE-based assay, NTPDase2; assay type: biochemical; settings: 20 µg/mL (12 µM); read-out: NTPDase2 inhibition, selectivity study
T1 construct: made in house; host or cells: COS-7 cells
T1 sequence (Q9Y5L3 1-495): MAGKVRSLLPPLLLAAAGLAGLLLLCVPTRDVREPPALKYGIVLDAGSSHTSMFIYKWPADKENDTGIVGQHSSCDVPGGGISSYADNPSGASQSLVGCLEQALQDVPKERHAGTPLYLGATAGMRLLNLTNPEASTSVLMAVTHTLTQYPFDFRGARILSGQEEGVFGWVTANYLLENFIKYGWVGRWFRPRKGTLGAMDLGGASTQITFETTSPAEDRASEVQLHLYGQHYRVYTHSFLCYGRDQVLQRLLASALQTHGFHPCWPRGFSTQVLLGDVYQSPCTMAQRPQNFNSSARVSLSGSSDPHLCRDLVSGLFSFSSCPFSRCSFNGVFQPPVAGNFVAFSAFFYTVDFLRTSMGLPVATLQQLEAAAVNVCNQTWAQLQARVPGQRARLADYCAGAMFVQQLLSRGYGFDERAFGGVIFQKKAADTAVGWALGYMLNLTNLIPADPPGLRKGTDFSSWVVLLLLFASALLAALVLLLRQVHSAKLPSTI
Procedure: (§1) For monitoring the activity of human NTPDases (subtypes 1, 2, 3 and 8) in the presence of test compounds, a CE-based assay system was used, according to a published procedure ([11], [25]). The following concentrations of test compounds were investigated in initial screening studies: 63 IU/mL of compounds 1 and 2, 30 µM of compound 6. For selectivity studies, the following concentration were employed: 50 IU/mL of 1, 12 µM of 6, and 48 µM of 7. The amount of enzyme was selected according to previously performed enzymatic titration, and adjusted to ensure a 10–20% conversion rate. Enzymes were obtained by transfection of COS-7 cells using plasmids encoding human NTPDase1 (GenBank accession number U87967) ([26]), NTPDase2 (NM_203468) ([27]), a kind gift of Dr. A.F. Knowles (San Diego, CA), NTPDase3 (AF034840) ([28]), a kind gift of Dr. T.L. Kirley (Cincinnati, OH) and human NTPDase8 (AY430414) ([29]) and purified as previously described ([30], [31]). The reaction buffer consisted of 10 mM HEPES, 2 mM CaCl2, and 1 mM MgCl2, pH 7.4. In the CE assay, the selected substrate concentration (ATP) was 100 µM for all studied human NTPDases (-1, -2, -3 and -8). […] The released products were separated by CE and quantified by their UV-absorption at 260 nm with ADP and AMP as external standards, as previously described ([11]); positive and negative controls were included.

[1] = test system: ectonucleotidases expressed in U87 cell membrane preparations; assay: Enzymatic assay on U87 cell membrane preparations (adenosine formation, CE); assay type: biochemical, human; settings: 6 at 3 and 30 µM, 7 at 35 µM
Procedure: U87 glioblastoma cells were grown in cell culture dishes until reaching a fully covered confluent cell layer. Cells were cultivated at 37°C and 5% CO2 in DMEM with additions of 10% FCS, 1% penicillin/streptomycin (P/S) mixture and 1% L-glutamine. When confluent, the cell culture media was carefully removed and cells were frozen at -20°C overnight. The cells were then scraped off with a cell scraper using 2-3 mL of buffer (5 mM Tris, 2 mM EDTA, pH 7.4), homogenized and centrifuged for 10 min at 1000 g. The supernatant was collected and centrifuged for 60 min at 48000 g and 4°C. The pellet was then resuspended twice with Tris buffer, pH 7.4, followed by vortexing and centrifugation. The whole procedure was performed on ice. Finally, the pellet was resuspended and homogenized. A protein concentration of 1.5 mg/mL was determined with the Bradford method ([35]), and the protein was kept at -20°C until used. The enzymatic assay was performed by incubating the membrane preparation and the substrate at 37°C and 500 rpm for 30 min, followed by heat inactivation at 95°C for 5 min. For the determination of kinetic parameters, several substrate concentrations (from 6 to 500 µM of ATP or AMP) were utilized and incubated with 10 µg of membrane preparation for 30 min at 37°C, followed by heat inactivation. Capillary electrophoresis (CE) was used for analysis and quantification of the enzymatic product according to published procedures ([11], [36]). For the determination of the enzymatic activity 400 µM of ATP were employed, and three different amounts of membrane preparation (6, 10 and 30 µg of protein) were utilized. A positive control using the known NPP1 inhibitor PSB-POM-141 (20 µM) was performed ([19]). Data were obtained from three independent experiments each in duplicate measurements. […] Controls were run in parallel.

human NTPDase3 = target: T2, human NTPDase3 (Homo sapiens, UniProt O75355); assay: NTPDase CE-based assay, NTPDase3; assay type: biochemical; settings: 20 µg/mL (12 µM)
T2 construct: made in house; host or cells: COS-7 cells
T2 sequence (O75355 1-529): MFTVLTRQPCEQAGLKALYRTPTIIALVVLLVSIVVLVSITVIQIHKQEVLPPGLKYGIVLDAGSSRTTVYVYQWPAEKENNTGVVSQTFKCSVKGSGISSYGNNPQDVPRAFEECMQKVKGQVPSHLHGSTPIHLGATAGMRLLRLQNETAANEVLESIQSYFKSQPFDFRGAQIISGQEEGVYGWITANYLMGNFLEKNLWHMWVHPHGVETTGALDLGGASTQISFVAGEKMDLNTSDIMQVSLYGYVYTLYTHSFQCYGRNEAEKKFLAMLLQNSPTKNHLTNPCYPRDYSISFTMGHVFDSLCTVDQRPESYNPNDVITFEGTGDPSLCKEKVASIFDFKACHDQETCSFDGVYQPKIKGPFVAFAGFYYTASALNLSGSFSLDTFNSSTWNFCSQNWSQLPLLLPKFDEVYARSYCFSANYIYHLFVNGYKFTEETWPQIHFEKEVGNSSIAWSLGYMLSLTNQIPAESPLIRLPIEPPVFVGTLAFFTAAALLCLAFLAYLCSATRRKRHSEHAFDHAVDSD
Procedure: as §1

[2] = cited from earlier work

inhibition at 12 µM (human NTPDase2): ~35%
NTPDase3 inhibition, selectivity study (human NTPDase3): no effect
SMILES: CO[C@H]1O[C@H](COS(=O)(=O)O)[C@@H](O[C@@H]2O[C@@H](C(=O)O)[C@@H](O[C@H]3O[C@H](COS(=O)(=O)O)[C@@H](O[C@@H]4O[C@H](C(=O)O)[C@@H](O[C@H]5O[C@H](COS(=O)(=O)O)[C@@H](O)[C@H](O)[C@H]5NS(=O)(=O)O)[C@H](O)[C@H]4O)[C@H](OS(=O)(=O)O)[C@H]3NS(=O)(=O)O)[C@H](O)[C@H]2OS(=O)(=O)O)[C@H](O)[C@H]1NS(=O)(=O)O [Compound 6, Fondaparinux]
inhibition of the formation of adenosine from ATP [1]: inhibited the formation of adenosine in a dose-dependent manner
half-life [2]: 17 h
